Measurements: patent US20140357713A1, “ANTIMICROBIAL COMPOUNDS AND METHODS OF USE” (NexMed Holdings, Inc., priority 2012, published 2014)

Tests used:
Staphylococcus aureus = experiment: Extended time kill study, Example 34 (0 to 24 h); format: cell-based
Protocol: (§1) Time kill studies. Strain suspensions were prepared as described above for the MIC test, and strain suspensions and compound solutions were mixed in the same volume. Samples were removed at specified times including 0 min, 30 sec, 1 min and 5 mins, were diluted in the test medium and streaked on agar. Colonies were counted after 24 to 48 hrs of incubation.
(§2) The time kill studies of Example 33 were extended for five compounds (Nex-59, Nex-60, Nex-61, Nex-62, and Nex-88) using the same methods at longer time periods and at higher multiples of MIC. Nex-88 is a code number for DDAIP.HCl from a different supplier.

Aspergillus niger = experiment: Extended time kill study, Example 34 (0 to 24 h); format: cell-based
Protocol: as §1, §2

Candida albicans = experiment: Extended time kill study, Example 34 (0 to 24 h); format: cell-based
Protocol: as §1, §2

Escherichia coli = experiment: Extended time kill study, Example 34 (0 to 24 h); format: cell-based
Protocol: as §1, §2

Pseudomonas aeruginosa = experiment: Extended time kill study, Example 34 (0 to 24 h); format: cell-based
Protocol: as §1, §2

[1] = Solubility (Sol., Table 1); format: physicochemical

CCCCCCCCCCCCOC(=O)C(C)NCCN(CC)CC.Cl (stereo not shown) [Nex-62, Dodecyl 2-((2-(diethylamino)ethyl)amino)propanoate dihydrochloride]
Viable counts, Staphylococcus aureus time kill study (Staphylococcus aureus; 1 × MIC, 1 h): 6.00 Log10 CFU/mL
Viable counts, Staphylococcus aureus time kill study (Staphylococcus aureus; 1 × MIC, 2 h): 5.66 Log10 CFU/mL
Viable counts, Staphylococcus aureus time kill study (Staphylococcus aureus; 1 × MIC, 4 h): 4.70 Log10 CFU/mL
Viable counts, Staphylococcus aureus time kill study (Staphylococcus aureus; 1 × MIC, 6 h): 4.48 Log10 CFU/mL
Viable counts, Staphylococcus aureus time kill study (Staphylococcus aureus; 1 × MIC, 24 h): <1 Log10 CFU/mL
Viable counts, Staphylococcus aureus time kill study (Staphylococcus aureus; 1×MIC, time 0): 6.23 Log10 CFU/mL
Viable counts, Staphylococcus aureus time kill study (Staphylococcus aureus; 2 × MIC, 1 h): 5.30 Log10 CFU/mL
Viable counts, Staphylococcus aureus time kill study (Staphylococcus aureus; 2 × MIC, 2 h): <3 Log10 CFU/mL
Viable counts, Staphylococcus aureus time kill study (Staphylococcus aureus; 2 × MIC, 4 h): <3 Log10 CFU/mL
Viable counts, Staphylococcus aureus time kill study (Staphylococcus aureus; 2 × MIC, 6 h): <3 Log10 CFU/mL
Viable counts, Staphylococcus aureus time kill study (Staphylococcus aureus; 2 × MIC, 24 h): <1 Log10 CFU/mL
Viable counts, Staphylococcus aureus time kill study (Staphylococcus aureus; 2 × MIC, time 0): 6.25 Log10 CFU/mL
Viable counts, Staphylococcus aureus time kill study (Staphylococcus aureus; 4 × MIC, 1 h): 5.30 Log10 CFU/mL
Viable counts, Staphylococcus aureus time kill study (Staphylococcus aureus; 4 × MIC, 2 h): <3 Log10 CFU/mL
Viable counts, Staphylococcus aureus time kill study (Staphylococcus aureus; 4 × MIC, 4 h): <3 Log10 CFU/mL
Viable counts, Staphylococcus aureus time kill study (Staphylococcus aureus; 4 × MIC, 6 h): <3 Log10 CFU/mL
Viable counts, Staphylococcus aureus time kill study (Staphylococcus aureus; 4 × MIC, 24 h): <1 Log10 CFU/mL
Viable counts, Staphylococcus aureus time kill study (Staphylococcus aureus; 4 × MIC, time 0): 6.20 Log10 CFU/mL
Viable counts in Log10 CFU/mL (Aspergillus niger; 1 × MIC, 1 h): 5.53 Log10 CFU/mL
Viable counts in Log10 CFU/mL (Aspergillus niger; 1 × MIC, 2 h): 5.51 Log10 CFU/mL
Viable counts in Log10 CFU/mL (Aspergillus niger; 1 × MIC, 4 h): 5.15 Log10 CFU/mL
Viable counts in Log10 CFU/mL (Aspergillus niger; 1 × MIC, 6 h): 4.78 Log10 CFU/mL
Viable counts in Log10 CFU/mL (Aspergillus niger; 1 × MIC, 24 h): 4 Log10 CFU/mL
Viable counts in Log10 CFU/mL (Aspergillus niger; 1 × MIC, 0 h): 5.51 Log10 CFU/mL
Viable counts in Log10 CFU/mL (Aspergillus niger; 2 × MIC, 1 h): 5.48 Log10 CFU/mL
Viable counts in Log10 CFU/mL (Aspergillus niger; 2 × MIC, 2 h): 5.57 Log10 CFU/mL
Viable counts in Log10 CFU/mL (Aspergillus niger; 2 × MIC, 4 h): 5.08 Log10 CFU/mL
Viable counts in Log10 CFU/mL (Aspergillus niger; 2 × MIC, 6 h): 5.38 Log10 CFU/mL
Viable counts in Log10 CFU/mL (Aspergillus niger; 2 × MIC, 24 h): 5.58 Log10 CFU/mL
Viable counts in Log10 CFU/mL (Aspergillus niger; 2 × MIC, 0 h): 5.49 Log10 CFU/mL
Viable counts in Log10 CFU/mL (Aspergillus niger; 4 × MIC, 1 h): 5.49 Log10 CFU/mL
Viable counts in Log10 CFU/mL (Aspergillus niger; 4 × MIC, 2 h): 5.49 Log10 CFU/mL
Viable counts in Log10 CFU/mL (Aspergillus niger; 4 × MIC, 4 h): 5.00 Log10 CFU/mL
Viable counts in Log10 CFU/mL (Aspergillus niger; 4 × MIC, 6 h): 5.20 Log10 CFU/mL
Viable counts in Log10 CFU/mL (Aspergillus niger; 4 × MIC, 24 h): 3.85 Log10 CFU/mL
Viable counts in Log10 CFU/mL (Aspergillus niger; 4 × MIC, 0 h): 5.56 Log10 CFU/mL
Viable counts in Log10 CFU/mL (Candida albicans; 1 × MIC, 1 h): 5.75 Log10 CFU/mL
Viable counts in Log10 CFU/mL (Candida albicans; 1 × MIC, 2 h): 5.78 Log10 CFU/mL
Viable counts in Log10 CFU/mL (Candida albicans; 1 × MIC, 4 h): 6.04 Log10 CFU/mL
Viable counts in Log10 CFU/mL (Candida albicans; 1 × MIC, 6 h): 6.21 Log10 CFU/mL
Viable counts in Log10 CFU/mL (Candida albicans; 1 × MIC, 24 h): >6 Log10 CFU/mL
Viable counts in Log10 CFU/mL (Candida albicans; 1 × MIC, 0 h): 5.74 Log10 CFU/mL
Viable counts in Log10 CFU/mL (Candida albicans; 2 × MIC, 1 h): 5.68 Log10 CFU/mL
Viable counts in Log10 CFU/mL (Candida albicans; 2 × MIC, 2 h): 5.67 Log10 CFU/mL
Viable counts in Log10 CFU/mL (Candida albicans; 2 × MIC, 4 h): 5.68 Log10 CFU/mL
Viable counts in Log10 CFU/mL (Candida albicans; 2 × MIC, 6 h): 5.58 Log10 CFU/mL
Viable counts in Log10 CFU/mL (Candida albicans; 2 × MIC, 24 h): >6 Log10 CFU/mL
Viable counts in Log10 CFU/mL (Candida albicans; 2 × MIC, 0 h): 5.76 Log10 CFU/mL
Viable counts in Log10 CFU/mL (Candida albicans; 4 × MIC, 1 h): 5.32 Log10 CFU/mL
Viable counts in Log10 CFU/mL (Candida albicans; 4 × MIC, 2 h): 5.33 Log10 CFU/mL
Viable counts in Log10 CFU/mL (Candida albicans; 4 × MIC, 4 h): 5.00 Log10 CFU/mL
Viable counts in Log10 CFU/mL (Candida albicans; 4 × MIC, 6 h): 4.53 Log10 CFU/mL
Viable counts in Log10 CFU/mL (Candida albicans; 4 × MIC, 24 h): <1 Log10 CFU/mL
Viable counts in Log10 CFU/mL (Candida albicans; 4 × MIC, 0 h): 5.69 Log10 CFU/mL
Viable counts, Escherichia coli time kill study (Escherichia coli; 1 × MIC, 1 h): 1 Log10 CFU/mL
Viable counts, Escherichia coli time kill study (Escherichia coli; 1 × MIC, 2 h): 1 Log10 CFU/mL
Viable counts, Escherichia coli time kill study (Escherichia coli; 1 × MIC, 4 h): <1 Log10 CFU/mL
Viable counts, Escherichia coli time kill study (Escherichia coli; 1 × MIC, 6 h): 2.18 Log10 CFU/mL
Viable counts, Escherichia coli time kill study (Escherichia coli; 1 × MIC, 24 h): 7.99 Log10 CFU/mL
Viable counts, Escherichia coli time kill study (Escherichia coli; 1×MIC, time 0): 5.06 Log10 CFU/mL
Viable counts, Escherichia coli time kill study (Escherichia coli; 2 × MIC, 1 h): <1 Log10 CFU/mL
Viable counts, Escherichia coli time kill study (Escherichia coli; 2 × MIC, 2 h): <1 Log10 CFU/mL
Viable counts, Escherichia coli time kill study (Escherichia coli; 2 × MIC, 4 h): <1 Log10 CFU/mL
Viable counts, Escherichia coli time kill study (Escherichia coli; 2 × MIC, 6 h): <1 Log10 CFU/mL
Viable counts, Escherichia coli time kill study (Escherichia coli; 2 × MIC, 24 h): <1 Log10 CFU/mL
Viable counts, Escherichia coli time kill study (Escherichia coli; 2 × MIC, time 0): 5.18 Log10 CFU/mL
Viable counts, Escherichia coli time kill study (Escherichia coli; 4 × MIC, 1 h): <1 Log10 CFU/mL
Viable counts, Escherichia coli time kill study (Escherichia coli; 4 × MIC, 2 h): <1 Log10 CFU/mL
Viable counts, Escherichia coli time kill study (Escherichia coli; 4 × MIC, 4 h): <1 Log10 CFU/mL
Viable counts, Escherichia coli time kill study (Escherichia coli; 4 × MIC, 6 h): <1 Log10 CFU/mL
Viable counts, Escherichia coli time kill study (Escherichia coli; 4 × MIC, 24 h): <1 Log10 CFU/mL
Viable counts, Escherichia coli time kill study (Escherichia coli; 4 × MIC, time 0): 5.12 Log10 CFU/mL
Viable counts, Pseudomonas aeruginosa time kill study (Pseudomonas aeruginosa; 1 × MIC, 1 h): <1 Log10 CFU/mL
Viable counts, Pseudomonas aeruginosa time kill study (Pseudomonas aeruginosa; 1 × MIC, 2 h): <1 Log10 CFU/mL
Viable counts, Pseudomonas aeruginosa time kill study (Pseudomonas aeruginosa; 1 × MIC, 4 h): <1 Log10 CFU/mL
Viable counts, Pseudomonas aeruginosa time kill study (Pseudomonas aeruginosa; 1 × MIC, 6 h): <1 Log10 CFU/mL
Viable counts, Pseudomonas aeruginosa time kill study (Pseudomonas aeruginosa; 1 × MIC, 24 h): <1 Log10 CFU/mL
Viable counts, Pseudomonas aeruginosa time kill study (Pseudomonas aeruginosa; 1×MIC, time 0): 5.20 Log10 CFU/mL
Viable counts, Pseudomonas aeruginosa time kill study (Pseudomonas aeruginosa; 2 × MIC, 1 h): <1 Log10 CFU/mL
Viable counts, Pseudomonas aeruginosa time kill study (Pseudomonas aeruginosa; 2 × MIC, 2 h): <1 Log10 CFU/mL
Viable counts, Pseudomonas aeruginosa time kill study (Pseudomonas aeruginosa; 2 × MIC, 4 h): <1 Log10 CFU/mL
Viable counts, Pseudomonas aeruginosa time kill study (Pseudomonas aeruginosa; 2 × MIC, 6 h): <1 Log10 CFU/mL
Viable counts, Pseudomonas aeruginosa time kill study (Pseudomonas aeruginosa; 2 × MIC, 24 h): <1 Log10 CFU/mL
Viable counts, Pseudomonas aeruginosa time kill study (Pseudomonas aeruginosa; 2 × MIC, time 0): 5.25 Log10 CFU/mL
Viable counts, Pseudomonas aeruginosa time kill study (Pseudomonas aeruginosa; 4 × MIC, 1 h): <1 Log10 CFU/mL
Viable counts, Pseudomonas aeruginosa time kill study (Pseudomonas aeruginosa; 4 × MIC, 2 h): <1 Log10 CFU/mL
Viable counts, Pseudomonas aeruginosa time kill study (Pseudomonas aeruginosa; 4 × MIC, 4 h): <1 Log10 CFU/mL
Viable counts, Pseudomonas aeruginosa time kill study (Pseudomonas aeruginosa; 4 × MIC, 6 h): <1 Log10 CFU/mL
Viable counts, Pseudomonas aeruginosa time kill study (Pseudomonas aeruginosa; 4 × MIC, 24 h): <1 Log10 CFU/mL
Viable counts, Pseudomonas aeruginosa time kill study (Pseudomonas aeruginosa; 4 × MIC, time 0): 5.23 Log10 CFU/mL
Sol. [1]: 48%
